Measurements: patent US6960470B1 (priority 1998, dated 2005)

System: hippocampal slices from wt and Δ9 mutant (PS-1) animals
Assay type: cell-based

| Compound | difference in potentiation between wt and Δ9 mutation slices post-tetanus | AP5-sensitive potentials during tetanus, difference between wt and Δ9 mutant slices |
| --- | --- | --- |
| CN1C(=O)CN=C(c2ccccc2F)c2cc([N+](=O)[O-])ccc21 [flunitrazepam] | no statistically significant difference between the two groups |  |
| AP5 |  | no statistically significant difference between the two groups |
